Test results: ChEMBL document CHEMBL3885861, “Open TG-GATES”

Species on record: Rattus norvegicus
Experiment: Open TG-GATES - Regimen: Single
Format: toxicity, organism-based, Sprague-Dawley
Set-up: regimen Single, gender Male, age 6 weeks
Settings: in vivo, po, route gavage; for Eos / Fbg / Hb / Ht / Lym / MCH / MCHC / MCV / Mono / Neu / PT / Plat / RBC / Ret / WBC / APTT / Bas: tissue Blood; for KIDNEY_L / KIDNEY_R / KIDNEY_TOTAL: tissue Kidney; for LIVER: tissue Liver; for A/G / ALP / ALT / AST / BUN / CRE / Ca / Cl / DBIL / GLC / IP / K / LDH / Na / PL / RALB / TBIL / TC / TG / TP / gamma-GTP: tissue Plasma
[1] = 30 mg/kg, 3 h, dose level Middle
[2] = 30 mg/kg, 6 h, dose level Middle
[3] = 30 mg/kg, 9 h, dose level Middle

Compound: O=C1CN(/N=C/c2ccc([N+](=O)[O-])o2)C(=O)N1 [NITROFURANTOIN]
- Eos (10 mg/kg, 24 h, dose level Low): 1%
- Fbg (10 mg/kg, 24 h, dose level Low): 212.8 mg/dL
- Hb (10 mg/kg, 24 h, dose level Low): 13.1 g/dL
- Ht (10 mg/kg, 24 h, dose level Low): 37.6%
- Lym (10 mg/kg, 24 h, dose level Low): 80.2%
- MCH (10 mg/kg, 24 h, dose level Low): 21.9 pg
- MCHC (10 mg/kg, 24 h, dose level Low): 34.9%
- MCV (10 mg/kg, 24 h, dose level Low): 62.7 fL
- Mono (10 mg/kg, 24 h, dose level Low): 2.2%
- Neu (10 mg/kg, 24 h, dose level Low): 15.4%
- PT (10 mg/kg, 24 h, dose level Low): 12.6 s
- Plat (10 mg/kg, 24 h, dose level Low): 126.9 x10_4/uL
- RBC (10 mg/kg, 24 h, dose level Low): 599.6 x10_4/ul
- Ret (10 mg/kg, 24 h, dose level Low): 7%
- WBC (10 mg/kg, 24 h, dose level Low): 79.2 x10_2/uL
- KIDNEY_L (10 mg/kg, 24 h, dose level Low): 1.1 g
- KIDNEY_R (10 mg/kg, 24 h, dose level Low): 1.1 g
- KIDNEY_TOTAL (10 mg/kg, 24 h, dose level Low): 2.1 g
- LIVER (10 mg/kg, 24 h, dose level Low): 11.3 g
- A/G (10 mg/kg, 24 h, dose level Low): 1.6
- ALP (10 mg/kg, 24 h, dose level Low): 999.6 IU/L
- ALT (10 mg/kg, 24 h, dose level Low): 38.4 IU/L
- AST (10 mg/kg, 24 h, dose level Low): 63.4 IU/L
- BUN (10 mg/kg, 24 h, dose level Low): 16.8 mg/dL
- CRE (10 mg/kg, 24 h, dose level Low): 0.4 mg/dL
- Ca (10 mg/kg, 24 h, dose level Low): 10.9 mg/dL
- Cl (10 mg/kg, 24 h, dose level Low): 101.8 meq/L
- DBIL (10 mg/kg, 24 h, dose level Low): 0.1 mg/dL
- GLC (10 mg/kg, 24 h, dose level Low): 211.6 mg/dL
- IP (10 mg/kg, 24 h, dose level Low): 7.1 mg/dL
- K (10 mg/kg, 24 h, dose level Low): 4.3 meq/L
- LDH (10 mg/kg, 24 h, dose level Low): 168.2 IU/L
- Na (10 mg/kg, 24 h, dose level Low): 139.4 meq/L
- PL (10 mg/kg, 24 h, dose level Low): 151.6 mg/dL
- RALB (10 mg/kg, 24 h, dose level Low): 3.3 g/dL
- TBIL (10 mg/kg, 24 h, dose level Low): 0.2 mg/dL
- TC (10 mg/kg, 24 h, dose level Low): 78.8 mg/dL
- TG (10 mg/kg, 24 h, dose level Low): 105.8 mg/dL
- TP (10 mg/kg, 24 h, dose level Low): 5.4 g/dL
- gamma-GTP (10 mg/kg, 24 h, dose level Low): 0.8 IU/L
- TERMINAL_BW [1]: 218.7 g
- APTT [1]: 18.8 s
- Bas [1]: 0%
- Eos [1]: 1.2%
- Fbg [1]: 219.2 mg/dL
- Hb [1]: 13.8 g/dL
- Ht [1]: 39.3%
- Lym [1]: 79%
- MCH [1]: 21.6 pg
- MCHC [1]: 35.2%
- MCV [1]: 61.4 fL
- Mono [1]: 2%
- Neu [1]: 16.8%
- PT [1]: 12.6 s
- Plat [1]: 113.7 x10_4/uL
- RBC [1]: 642 x10_4/ul
- Ret [1]: 7.5%
- WBC [1]: 82.7 x10_2/uL
- KIDNEY_L [1]: 1 g
- KIDNEY_R [1]: 1 g
- KIDNEY_TOTAL [1]: 2 g
- LIVER [1]: 10.8 g
- A/G [1]: 1.5
- ALP [1]: 1203 IU/L
- ALT [1]: 37.6 IU/L
- AST [1]: 66.6 IU/L
- BUN [1]: 12.8 mg/dL
- CRE [1]: 0.4 mg/dL
- Ca [1]: 10.6 mg/dL
- Cl [1]: 101.4 meq/L
- DBIL [1]: 0.074 mg/dL
- GLC [1]: 194.6 mg/dL
- IP [1]: 9 mg/dL
- K [1]: 4 meq/L
- LDH [1]: 180 IU/L
- Na [1]: 140.6 meq/L
- PL [1]: 136 mg/dL
- RALB [1]: 3.3 g/dL
- TBIL [1]: 0.1 mg/dL
- TC [1]: 74.6 mg/dL
- TG [1]: 62.2 mg/dL
- TP [1]: 5.5 g/dL
- gamma-GTP [1]: 0.8 IU/L
- TERMINAL_BW [2]: 219.6 g
- APTT [2]: 19 s
- Bas [2]: 0%
- Eos [2]: 1%
- Fbg [2]: 219 mg/dL
- Hb [2]: 13.3 g/dL
- Ht [2]: 37.6%
- Lym [2]: 75%
- MCH [2]: 21.5 pg
- MCHC [2]: 35.3%
- MCV [2]: 61 fL
- Mono [2]: 2.6%
- Neu [2]: 20%
- PT [2]: 12.7 s
- Plat [2]: 115.2 x10_4/uL
- RBC [2]: 616.2 x10_4/ul
- Ret [2]: 7.6%
- WBC [2]: 82.3 x10_2/uL
- KIDNEY_L [2]: 1 g
- KIDNEY_R [2]: 1 g
- KIDNEY_TOTAL [2]: 2 g
- LIVER [2]: 9.8 g
- A/G [2]: 1.6
- ALP [2]: 861.8 IU/L
- ALT [2]: 31 IU/L
- AST [2]: 58.8 IU/L
- BUN [2]: 11 mg/dL
- CRE [2]: 0.4 mg/dL
- Ca [2]: 10.6 mg/dL
- Cl [2]: 103.2 meq/L
- DBIL [2]: 0.072 mg/dL
- GLC [2]: 191 mg/dL
- IP [2]: 9.2 mg/dL
- K [2]: 4.1 meq/L
- LDH [2]: 168.6 IU/L
- Na [2]: 140.8 meq/L
- PL [2]: 132 mg/dL
- RALB [2]: 3.3 g/dL
- TBIL [2]: 0.1 mg/dL
- TC [2]: 73.4 mg/dL
- TG [2]: 64 mg/dL
- TP [2]: 5.4 g/dL
- gamma-GTP [2]: 0.8 IU/L
- TERMINAL_BW [3]: 216.9 g
- APTT [3]: 18.6 s
- Bas [3]: 0%
- Eos [3]: 0.8%
- Fbg [3]: 213.4 mg/dL
- Hb [3]: 13.3 g/dL
- Ht [3]: 38%
- Lym [3]: 79.6%
- MCH [3]: 21.9 pg
- MCHC [3]: 35.1%
- MCV [3]: 62.3 fL
- Mono [3]: 3.2%
- Neu [3]: 14.8%
- PT [3]: 12.9 s
- Plat [3]: 107.6 x10_4/uL
- RBC [3]: 609.8 x10_4/ul
- Ret [3]: 7.5%
- WBC [3]: 96.9 x10_2/uL
- KIDNEY_L [3]: 1 g
- KIDNEY_R [3]: 1 g
- KIDNEY_TOTAL [3]: 2 g
- LIVER [3]: 9.5 g
